Experimental data published in patent US9159937B2, “Heteroleptic light-emitting complexes” (SOLVAY SA, priority 2011, dated 2015).
Where two headings read alike, the source gives them in different places.

Key:
[1] = Solubility evaluation in toluene; assay type: physicochemical
Experimental: Solubility evaluation were performed at 25° C. using toluene as solvent.

[2] = Glass transition temperature by DSC; assay type: physicochemical
Experimental: The glass transition temperatures Tg were measured using a TA instruments 2920 DSC equipment and data evaluation were done with the TA Instruments Universal Analysis 2000 software.

Compound | Toluene solubility S at 25° C. [1] | Toluene solubility S at 25° C. ([1]; listed as Ir(2-PhQ)3) | Tg [2]
[Ir+3].[c-]1ccccc1-c1ccc2ccccc2n1.[c-]1ccccc1-c1ccc2ccccc2n1.[c-]1ccccc1-c1ccc2ccccc2n1 [[Ir(2-PhQ)3], reference compound] | S < 0.02 wt % | < 0.02 wt % | 
[Ir(2-PhQ)2(DMC2)] | S > 0.25 wt % |  | 
[Ir(n-hexPhQ)3] [reference compound] |  |  | 54 °C
